This is an account of results in US9840513B2 (AbbVie S.à.r.l., priority 2015, dated 2017).

Experiment [1] addresses T1, F508delCFTR in primary hBE cells with F508del/F508del CFTR mutation (Homo sapiens, UniProt P13569, DEL508-508).
T1 construct: cells isolated from CF patients with the homozygous mutation; endogenous in cells; host or cells: primary human bronchial epithelial (hBE) cells from F508del/F508del CF patients
In words: Transepithelial Clamp Circuit on Human Bronchial Epithelial Cells Conductance Assay (hBE-TECC). In kind it is cell-based. To be noted: for EC50: primary hBE cells F508del/F508del, 18-24 hours at 37° C., equivalent short circuit current, 6 concentrations; for Maximum % activity (%): relative to positive control (3 μM) coupled with control potentiator. The method, boiled down:
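Primary F508del/F508del hBE cells grown 35 days at air-liquid interface, treated basolaterally with correctors 18-24 h at 37° C. Ieq (Vt/Rt) at 36.5° C, pH 7.4, after benzamil, forskolin 10 μM, control potentiator, bumetanide; 6 concentrations normalized to DMSO and 3 μM positive-control corrector, EC50 by 4-parameter fit.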

The target of experiment [2] is T2, F508delCFTR cell surface expression in CFBE41o-F508delCFTR-HRP cells (Homo sapiens, UniProt P13569, DEL508-508).
T2 construct: fused on or other part: Horseradish peroxidase (HRP) reporter inserted in the fourth exofacial (extracellular) loop of CFTR; expression is doxycycline-inducible
T2 sequence (P13569 with tags, fused parts or gaps DEL508-508 limits assumed): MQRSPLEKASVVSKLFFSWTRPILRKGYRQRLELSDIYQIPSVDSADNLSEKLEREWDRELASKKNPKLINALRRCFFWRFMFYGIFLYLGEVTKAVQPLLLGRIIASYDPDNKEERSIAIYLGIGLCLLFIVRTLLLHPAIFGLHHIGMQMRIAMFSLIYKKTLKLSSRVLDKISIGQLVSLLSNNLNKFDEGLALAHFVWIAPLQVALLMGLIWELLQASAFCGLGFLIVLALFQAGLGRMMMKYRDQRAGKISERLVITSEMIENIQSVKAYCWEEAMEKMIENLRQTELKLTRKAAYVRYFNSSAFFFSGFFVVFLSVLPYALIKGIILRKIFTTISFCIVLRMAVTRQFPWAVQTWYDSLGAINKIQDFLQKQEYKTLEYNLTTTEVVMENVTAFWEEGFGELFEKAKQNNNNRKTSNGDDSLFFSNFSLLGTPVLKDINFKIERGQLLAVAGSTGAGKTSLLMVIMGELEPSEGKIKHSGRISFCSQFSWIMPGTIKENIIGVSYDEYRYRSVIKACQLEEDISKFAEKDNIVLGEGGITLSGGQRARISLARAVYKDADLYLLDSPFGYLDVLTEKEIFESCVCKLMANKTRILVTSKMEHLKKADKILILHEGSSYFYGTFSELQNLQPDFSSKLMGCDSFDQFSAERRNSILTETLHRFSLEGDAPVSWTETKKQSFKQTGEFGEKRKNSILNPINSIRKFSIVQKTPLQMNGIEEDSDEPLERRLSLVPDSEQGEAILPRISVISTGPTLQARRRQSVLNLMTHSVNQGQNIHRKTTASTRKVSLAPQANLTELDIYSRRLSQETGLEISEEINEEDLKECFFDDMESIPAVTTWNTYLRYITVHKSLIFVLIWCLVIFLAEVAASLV
T2 sequence (P13569 919-1480 limits assumed, stated change not applied): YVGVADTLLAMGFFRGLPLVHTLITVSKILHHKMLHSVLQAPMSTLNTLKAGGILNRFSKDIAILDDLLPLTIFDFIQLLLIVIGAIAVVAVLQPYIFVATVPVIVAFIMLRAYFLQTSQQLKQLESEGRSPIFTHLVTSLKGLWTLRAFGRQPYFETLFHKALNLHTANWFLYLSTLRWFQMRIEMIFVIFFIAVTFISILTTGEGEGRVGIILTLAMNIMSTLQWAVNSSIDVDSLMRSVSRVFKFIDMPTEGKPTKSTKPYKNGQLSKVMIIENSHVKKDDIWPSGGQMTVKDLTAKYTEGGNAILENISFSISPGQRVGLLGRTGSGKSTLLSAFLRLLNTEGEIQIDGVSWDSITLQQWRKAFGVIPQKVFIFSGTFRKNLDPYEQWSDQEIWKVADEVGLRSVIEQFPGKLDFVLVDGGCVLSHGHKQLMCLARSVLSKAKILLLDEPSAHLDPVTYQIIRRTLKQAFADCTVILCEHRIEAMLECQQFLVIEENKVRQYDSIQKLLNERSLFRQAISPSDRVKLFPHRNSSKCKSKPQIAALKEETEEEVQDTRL
The experiment is described as follows: Cell Surface Expression-Horse Radish Peroxidase (CSE-HRP) Assay. In kind it is cell-based. To be noted: for EC50: CFBE41o-F508delCFTR-HRP cells, 18-24 hours at 33° C., 8-point curve, highest concentration 20 μM; for Maximum % activity (%): maximum at any tested concentration, normalized to on-plate positive control (3 μM). The method, boiled down:
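CFBE41o- cells with HRP-tagged F508delCFTR, expression induced by 0.5 μg/mL doxycycline for 72 h at 37 °C, then compound for 18-24 h at 33 °C (8-point, 3-fold, top 20 μM). Surface HRP measured by luminol luminescence; % activity normalised to 3 μM positive-control corrector; EC50 from variable-slope sigmoidal fit, three replicate plates.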

Each structure is given as a SMILES string.

T1 sequence (P13569 with tags, fused parts or gaps DEL508-508): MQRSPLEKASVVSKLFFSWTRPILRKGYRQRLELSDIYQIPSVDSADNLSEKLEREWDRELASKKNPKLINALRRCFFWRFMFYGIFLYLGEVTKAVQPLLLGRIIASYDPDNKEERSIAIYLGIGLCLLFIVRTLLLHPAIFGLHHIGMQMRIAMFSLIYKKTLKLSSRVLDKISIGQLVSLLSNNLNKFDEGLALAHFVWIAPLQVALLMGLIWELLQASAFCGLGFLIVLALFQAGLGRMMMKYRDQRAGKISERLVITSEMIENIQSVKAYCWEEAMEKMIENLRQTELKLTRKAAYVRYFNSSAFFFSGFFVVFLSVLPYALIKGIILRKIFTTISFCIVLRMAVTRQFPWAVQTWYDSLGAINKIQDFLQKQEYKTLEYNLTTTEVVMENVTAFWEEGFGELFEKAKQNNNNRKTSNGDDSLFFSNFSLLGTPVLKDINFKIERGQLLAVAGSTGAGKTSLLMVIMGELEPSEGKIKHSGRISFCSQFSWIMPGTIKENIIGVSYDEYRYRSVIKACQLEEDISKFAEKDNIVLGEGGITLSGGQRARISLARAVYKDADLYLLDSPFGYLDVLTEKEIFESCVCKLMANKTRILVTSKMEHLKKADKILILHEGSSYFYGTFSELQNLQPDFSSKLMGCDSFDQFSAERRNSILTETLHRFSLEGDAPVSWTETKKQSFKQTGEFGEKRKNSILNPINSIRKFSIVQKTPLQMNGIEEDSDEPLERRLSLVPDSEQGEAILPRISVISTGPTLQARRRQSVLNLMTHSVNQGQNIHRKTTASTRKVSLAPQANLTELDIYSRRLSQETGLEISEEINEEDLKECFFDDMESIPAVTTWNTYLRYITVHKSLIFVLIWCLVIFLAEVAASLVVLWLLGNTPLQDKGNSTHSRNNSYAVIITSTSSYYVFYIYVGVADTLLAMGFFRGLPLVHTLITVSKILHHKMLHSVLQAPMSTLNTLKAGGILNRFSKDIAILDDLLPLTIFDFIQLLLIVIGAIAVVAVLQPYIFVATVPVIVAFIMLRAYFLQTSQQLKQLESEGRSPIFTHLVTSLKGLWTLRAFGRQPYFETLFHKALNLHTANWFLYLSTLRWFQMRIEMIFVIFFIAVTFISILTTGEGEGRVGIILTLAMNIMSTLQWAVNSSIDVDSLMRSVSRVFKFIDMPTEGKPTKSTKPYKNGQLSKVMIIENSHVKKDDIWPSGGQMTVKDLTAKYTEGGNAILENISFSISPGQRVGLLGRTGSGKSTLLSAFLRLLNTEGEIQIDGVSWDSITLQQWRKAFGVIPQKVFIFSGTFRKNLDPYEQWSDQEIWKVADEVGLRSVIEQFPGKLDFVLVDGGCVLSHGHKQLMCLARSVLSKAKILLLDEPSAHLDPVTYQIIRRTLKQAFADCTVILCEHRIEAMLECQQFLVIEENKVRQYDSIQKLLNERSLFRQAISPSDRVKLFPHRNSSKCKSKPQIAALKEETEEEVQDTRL

`C[C@]1(C(=O)N[C@@H]2C[C@H](C3(C(=O)N4C[C@H](O)[C@@H](O)C4)CC3)Oc3cc(OC(F)(F)F)ccc32)COc2cc3c(cc21)OC(F)(F)O3` [Example 282, (7R)—N-[(2R,4R)-2-{1-[(3S,4S)-3,4-dihydroxypyrrolidine-1-carbonyl]cyclopropyl}-7-(trifluoromethoxy)-3,4-dihydro-2H-1-benzopyran-4-yl]-2,2-difluoro-7-methyl-6,7-dihydro-2H-furo[2,3-f][1,3]benzodioxole-7-carboxamide]: the EC50 in experiment [1] came out at 282 nM; in experiment [2] it was 1860 nM. For the same compound, the “Maximum % activity (%)” value is given as 100% in experiment [1] and 135% in experiment [2].
In the same order, the values of `COc1ccc2c(c1)O[C@@H](c1ccc(C(=O)N3CCOCC3)cn1)C[C@H]2NC(=O)[C@@]1(C)COc2cc3c(cc21)OC(F)(F)O3` [Example 220, (7R)-2,2-difluoro-N-{(2R,4R)-7-methoxy-2-[5-(morpholine-4-carbonyl)pyridin-2-yl]-3,4-dihydro-2H-1-benzopyran-4-yl}-7-methyl-6,7-dihydro-2H-furo[2,3-f][1,3]benzodioxole-7-carboxamide] are 10 nM, 10 nM, 94% and 112%.
With `C[C@]1(C(=O)N[C@@H]2C[C@H]([C@H]3CC[C@H](C(=O)O)CC3)Oc3cc(OC(F)(F)F)ccc32)CCc2cc3c(cc21)OC(F)(F)O3` [Example 167, trans-4-[(2R,4R)-4-{[(5S)-2,2-difluoro-5-methyl-6,7-dihydro-2H,5H-indeno[5,6-d][1,3]dioxole-5-carbonyl]amino}-7-(trifluoromethoxy)-3,4-dihydro-2H-1-benzopyran-2-yl]cyclohexane-1-carboxylic acid], in experiment [1], the EC50 worked out at 87 nM and the “Maximum % activity (%)” value was found to be 112%. In addition, in experiment [2], the EC50 was found to be 53 nM and the “Maximum % activity (%)” value stood at 135%.
The like results for `C[C@]1(C(=O)N[C@@H]2C[C@H](c3ccc(C(=O)O)cn3)Oc3cc(OC(F)F)ccc32)COc2cc3c(cc21)OC(F)(F)O3` [Example 151, 6-[(2R,4R)-7-(difluoromethoxy)-4-{[(7R)-2,2-difluoro-7-methyl-6,7-dihydro-2H-furo[2,3-f][1,3]benzodioxole-7-carbonyl]amino}-3,4-dihydro-2H-1-benzopyran-2-yl]pyridine-3-carboxylic acid] were, in that order, 7.6 nM, 93%, 12 nM and 132%.
`C[C@]1(C(=O)Nc2cc3cc(C4(CO)COC4)n(C[C@@H](O)CO)c3cc2F)COc2cc3c(cc21)OC(F)(F)O3` [Example 135, (7R)—N-{1-[(2R)-2,3-dihydroxypropyl]-6-fluoro-2-[3-(hydroxymethyl)oxetan-3-yl]-1H-indol-5-yl}-2,2-difluoro-7-methyl-6,7-dihydro-2H-furo[2,3-f][1,3]benzodioxole-7-carboxamide]: in experiment [1], the EC50 is 2700 nM and the “Maximum % activity (%)” value was 62%. Further, in experiment [2], the EC50 is 2560 nM and the “Maximum % activity (%)” value is on record as 58%.
Regarding `COc1ccc2c(c1)O[C@@H](c1ccc(C(=O)O)cc1)C[C@H]2NC(=O)[C@@]1(C)COc2cc3c(cc21)OC(F)(F)O3` [Example 20, 4-[(2R,4R)-4-{[(7R)-2,2-difluoro-7-methyl-6,7-dihydro-2H-furo[2,3-f][1,3]benzodioxole-7-carbonyl]amino}-7-methoxy-3,4-dihydro-2H-1-benzopyran-2-yl]benzoic acid], in experiment [1], the EC50 came to 11 nM and the “Maximum % activity (%)” value is on record as 98%. For the same compound, in experiment [2], the EC50 was found to be 30 nM and the “Maximum % activity (%)” value is recorded as 150%.
Consider `Cc1ccc(NC(=O)[C@]2(C)CCc3c2ccc2c3OCO2)cc1-c1cccc(C(=O)O)c1` (single isomer, unassigned) [Example 37], for which, in experiment [1], the EC50 is 564 nM and the “Maximum % activity (%)” value is 70%. Also, in experiment [2], the EC50 was determined as 730 nM and the “Maximum % activity (%)” value stood at 83%.
The like results for `C[C@]1(C(=O)Nc2cc3cc(C4(CO)CCC4)n(C[C@@H](O)CO)c3cc2F)COc2cc3c(cc21)OC(F)(F)O3` [Example 134, (7R)—N-{1-[(2R)-2,3-dihydroxypropyl]-6-fluoro-2-[1-(hydroxymethyl)cyclobutyl]-1H-indol-5-yl}-2,2-difluoro-7-methyl-6,7-dihydro-2H-furo[2,3-f][1,3]benzodioxole-7-carboxamide] were, in that order, 197 nM, 79%, 480 nM and 109%.
The like results for `C[C@]1(C(=O)Nc2cc3cc(C4(CO)CCC4)[nH]c3cc2F)COc2cc3c(cc21)OC(F)(F)O3` [Example 172, (7R)-2,2-difluoro-N-{6-fluoro-2-[1-(hydroxymethyl)cyclobutyl]-1H-indol-5-yl}-7-methyl-6,7-dihydro-2H-furo[2,3-f][1,3]benzodioxole-7-carboxamide] were, in that order, 98 nM, 50%, 950 nM and 210%.
For the compound `COc1ccc2c(c1)O[C@@H](c1cnc([C@H](O)CO)cn1)C[C@H]2NC(=O)[C@@]1(C)COc2cc3c(cc21)OC(F)(F)O3` (single isomer, unassigned) [Example 192], the values for the EC50 in experiment [1] and in experiment [2] were 6 nM and 90 nM, respectively. In addition, the entries for the “Maximum % activity (%)” value in experiment [1] and in experiment [2] were 103% and 126%, respectively.
The like results for `COc1ccc2c(c1)O[C@@H](c1ccc(C(=O)N3CCN(CCO)CC3)cn1)C[C@H]2NC(=O)[C@@]1(C)COc2cc3c(cc21)OC(F)(F)O3` [Example 213, (7R)-2,2-difluoro-N-[(2R,4R)-2-{5-[4-(2-hydroxyethyl)piperazine-1-carbonyl]pyridin-2-yl}-7-methoxy-3,4-dihydro-2H-1-benzopyran-4-yl]-7-methyl-6,7-dihydro-2H-furo[2,3-f][1,3]benzodioxole-7-carboxamide] were, in that order, 41 nM, 80 nM, 82% and 117%.
The like results for `COc1ccc2c(c1)O[C@@H](c1ccc(CO)nc1)C[C@H]2NC(=O)[C@@]1(C)COc2cc3c(cc21)OC(F)(F)O3` [Example 178, (7R)-2,2-difluoro-N-{(2R,4R)-2-[6-(hydroxymethyl)pyridin-3-yl]-7-methoxy-3,4-dihydro-2H-1-benzopyran-4-yl}-7-methyl-6,7-dihydro-2H-furo[2,3-f][1,3]benzodioxole-7-carboxamide] were, in that order, 66 nM, 290 nM, 108% and 158%.
In the same order, the values of `CC(C)(CO)c1nc2cc(NC(=O)[C@@]3(C)COc4cc5c(cc43)OC(F)(F)O5)c(F)cc2n1C[C@@H](O)CO` [Example 137, (7R)—N-{1-[(2R)-2,3-dihydroxypropyl]-6-fluoro-2-(1-hydroxy-2-methylpropan-2-yl)-1H-benzimidazol-5-yl}-2,2-difluoro-7-methyl-6,7-dihydro-2H-furo[2,3-f][1,3]benzodioxole-7-carboxamide] are 2580 nM, 2060 nM, 67% and 72%.
